From patent US11248023B2 (NEURACLE SCIENCE CO., LTD., priority 2015, dated 2022)
Square brackets hold non-standard residues; d marks the D form. Peptide text beside a SMILES is read from it. PEG = not defined here

What was measured:
GALR2 = target: T1, GALR2 (Homo sapiens, UniProt O43603); assay: SRE-luc assay in HEK293-Gqi cells expressing GALR2; type: cell-based; details: GALR2 versus GALR3
T1 construct: expressed in transfected cells
T1 sequence (O43603 1-387): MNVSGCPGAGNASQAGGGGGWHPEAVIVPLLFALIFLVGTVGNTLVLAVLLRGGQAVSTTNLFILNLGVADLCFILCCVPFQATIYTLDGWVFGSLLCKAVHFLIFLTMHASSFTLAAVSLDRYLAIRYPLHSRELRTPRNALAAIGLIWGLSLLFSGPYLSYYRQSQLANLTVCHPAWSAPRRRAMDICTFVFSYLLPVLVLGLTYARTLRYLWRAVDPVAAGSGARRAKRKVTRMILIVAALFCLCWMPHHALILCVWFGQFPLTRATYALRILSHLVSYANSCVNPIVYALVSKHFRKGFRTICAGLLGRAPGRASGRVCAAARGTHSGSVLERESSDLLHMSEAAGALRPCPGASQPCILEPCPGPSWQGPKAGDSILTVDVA
From the text: The HEK293-Gqi stable cell line is a cell line in which the C-terminus of Gq is substituted with 3 amino acids of G to convert the signals of G to Gq signaling pathways. […] GALR subtypes 1 and 3 induce inhibitory G-coupled signaling, while GALR subtype 2 triggers stimulatory Gq-coupled signaling. This difference explains the use of the HEK293-Gqi stable cell line in which the C-terminus of Gq is substituted with 3 amino acids of G to convert the signals of Gi to Gq signaling pathways.
GALR subtypes 1 and 3 induce inhibitory G-coupled signaling, while GALR subtype 2 triggers stimulatory Gq-coupled signaling. This difference explains the use of the HEK293-Gqi stable cell line in which the C-terminus of Gq is substituted with 3 amino acids of G to convert the signals of G to Gq signaling pathways. The activities of the receptors were measured using an SRE-luc assay system designed to express luciferase (luc) by serum responsive element (SRE) promoters. Light caused by a reaction between expressed luciferase and luciferin as a substrate was detected using a luminometer so that receptor subtype-specific or ligand-specific cellular activities were observed. One day after HEK293-Gqi cells were seeded in 48-well plates at a density of 2×10^4 cells/well, plasmid DNA and SRE-luc plasmid DNA, which encode GALR2 and GALR3, respectively, were mixed in a ratio of 1:1 (75 ng+75 ng)/well, and treated with Effectene reagent (2 μl/well). After 3 h, media were replaced with DMEM media supplemented with 10% FBS. After 24 h, the DMEM media were replaced with FBS-free DMEM media. After 16 h, each constructed spexin-based mutant peptide was further incubated at 37° C. for 6 h. After this stage was finished, cells were washed with PBS and lysed by the addition of 100 μl of lysis buffer (0.1% triton X-100, 0.2M Tris, pH 8.0) at room temperature for 20 min. The luciferase activity was determined using a synergy 2 Multi-mode microplate reader (BioTek, Winooski, Vt., USA) with automatic injection of a luciferin solution (0.5 M MgCl2, 0.1 M ATP, 0.05 M D-luciferin, 1 M KH2PO4, pH 7.8).

[1] = Dietary intake and body weight change after intracerebroventricular administration; type: in vivo, mice
Procedure: C57BL/6J black male mice (9 weeks of age) were acquired from Orientbio (www.orient.co.kr). Mice were housed in a cage at 20-24° C. and 40-70% relative humidity under a normal 12:12 light-dark cycle (lights onset at 8:00 am), with food and water available ad libitum. All experiments were designed to minimize the number of animals. Animals were anesthetized to minimize their suffering in accordance with the Guidelines for Ethical Care and Use of Experimental Animals, which were approved by the institutional animal care and use committee of Korea University. For intracerebroventricular injection, mice were anesthetized with sodium pentobarbital (50 mg/kg, i.p.), mounted on a stereotaxic apparatus, and implanted with a 26-gauge stainless steel cannula into the right side of the lateral ventricle. Two jewelry screws were implanted into the skull as anchors, and the whole assembly was affixed to the skull with dental cement. Mice were recovered at least 2 weeks before experimentation. The GALR2 agonist was administered using a Hamilton syringe at a rate of 0.5 μl/min. Dietary intakes and weight changes were determined by measuring the weights of feed and mice before agonist administration, measuring the weights of the feed over 1, 2, 4, 12, and 24 h, and comparing the weight of mice after 24 h with the initial weight.
The effects of the GALR2 agonist on feeding behaviors and changes in body weight were investigated by the following procedure. First, a cannula was inserted into the third ventricle.

[2] = test system: neurons in the arcuate nucleus; assay: c-fos immunohistochemistry, arcuate nucleus, after ventricular administration; type: in vivo, mice; details: 0.4, 4, and 40 μg to the ventricle, 1 h
[3] = Stability in 100% fetal bovine serum, residual potency via IP3 production in GALR2-expressing cells; details: 37° C., 0-72 h, IP3 production in GALR2-expressing cells
Procedure: The stability of the spexin-based mutant peptides was investigated. To this end, first, each modified mutant peptide at an initial concentration 10 μM was allowed to react in 100% fetal bovine serum (FBS) at 37° C. for 0, 3, 6, 12, 24, 48, and 72 h. Thereafter, the potencies of the mutant peptide toward GALR2 were determined via inositol 1,4,5-triphosphate (IP3) production in GALR2-expressing cells. For the IP3 assay, cells were seeded in 12-well plates at a density of 2.5×10^5 cells/well and then the next day, cells were treated with a mixture of 1 μg of GALR2-encoding plasmid DNA and Lipofectamine 2000 (Invitrogen). On day following treatment, cells were incubated in M199 media containing 1% FBS, 1% L-glutamine, 1% antibiotic, and myo-^3H inositol 1 μCi/well for 20 h to radioactively label inositol phosphate. After this stage was finished, cells were allowed to react in buffer A (140 mM NaCl, 20 mM Hepes, 4 mM KCl, 8 mM D-glucose, 1 mM MgCl2, 1 mM CaCl2), 1 mg/ml free fatty acid bovine serum albumin, and 10 mM LiCl at pH 7.2) for 30 min. After the mutant peptide was allowed to react in 100% FBS, cells were treated with the mutant peptide for 40 min at 37° C. Media was removed, and reactions were terminated by addition of 1 ml of 10 mM cold formic acid to each well. The plates were allowed to stand at 4° C. for 30 min. Then, the resulting extracts were transferred to 6-mL plastic tubes containing 500 μl AG1-8X anion exchange columns. The tubes were gently mixed with a vortexer, and the supernatants were removed from the labeled mixture. Two washes with 1 ml of triple-distilled water were performed followed by two additional washes with 60 mM ammonium formate/5 mM sodium tetraborate. The radioactively labeled mixture was eluted from the column with 1 ml of 1 M ammonium formate/0.1 M formic acid (1 mL), and 800 μl from the elution were taken from each tube and transferred into scintillation vials. Then, 2 ml of scintillation cocktail solution (Ultima Gold™, Perkin Elmer, Waltham Mass., USA) was added to each sample. The radioactivity of the mixture solution of the radioactively labeled mixture and the scintillation cocktail solution was measured using a TRI carb 2100TR liquid scintillation analyzer (Packard).

neurons in the amygdala = assay: c-fos immunohistochemistry, amygdala and other brain regions; type: in vivo, mice; details: 0.4, 4, and 40 μg to the ventricle, 1-2 h
Procedure: Then, the brain was placed in a mold for brain tissue, transferred to and frozen in an isopentane solution kept cold on dry ice with an OCT composite containing 30% sucrose solution, and stored at −80° C. before use. The frozen brain tissue was sliced at 40 μm using a cryostat microtome, followed by immunohistochemistry.

[4] = Elevated plus maze (EPM) test; type: in vivo, mice; details: 4 μg lateral ventricle, 2-3 h after administration, vs DMSO
Procedure: The effect of the GALR2 agonist dN1-Qu on recovery from anxiety disorder was investigated. In the same manner as in Example 3, a cannula was inserted into the lateral ventricle of mice. 2-3 h after dimethyl sulfoxide (DMSO) as a control or 4 μg of the GALR2 agonist dN1-Qu as an experimental group was administered, the elevated plus maze (EPM) test was conducted to measure anxiety/obsession. The EPM test uses a cross-shaped maze elevated above the floor with closed arms, open arms, and a center and is based on the behavior of mice that prefer to remain in the closed arms. Anxiety is judged to be lower when a larger number of mice remain in the open arms. After mice was placed on the plus maze, the time spent in the open arms (“time in open arm”), the number of mice entering the open arms (“number of open arm entry”), and the total movement (“number of center crossing”) were measured for the first 15 min. The results for the last 10 min were used for analysis.

[5] = Open field test (OFT) in anxiety-induced mice; type: in vivo; details: vs DMSO
From the text: The effect of the GALR2 agonist on anxiety reduction was investigated by the OFT for simultaneously measuring movement and anxiety (FIG. 13). The OFT is based on the behavior of mice that prefer to stay at the periphery rather than at the center of a quadrangular area. After mice were placed at the center of a quadrangular area, the proportion of the time spent in the center (“% time in center”), the proportion of the moving distance in the center (“% distance in center”), and the total moving distance (“total distance”) were measured for 10 min from the time when the animals moved to the periphery. The results were divided into two equal periods (5 min each) for analysis. 2-3 h after 4 μg of DMSO as a control or the GALR2 agonist dN1-Qu was administered to the lateral ventricle of animals, which had previously been evoked by repeated electric shocks to induce anxiety, anxiety and movement were measured.

[6] = Sucrose preference test (SPT); type: in vivo, mice; details: 2 days
Procedure: The effect of the GALR2 agonist dN1-Qu on addiction reduction was investigated. In the same manner as in Example 3, a cannula was inserted into the lateral ventricle of mice. After injection of dimethyl sulfoxide (DMSO) and 0.4, 4, and 40 μg of dN1-Qu, the consumptions of water and 1% sucrose solution were measured for 2 days by the sucrose preference test (SPT) for addiction evaluation. According to this test, tap water and sucrose solution were filled in respective bottles and weighed before injection of the agonist. After free access to the fluids for 2 days, the bottles were weighed to compare the total consumption of the fluids and the percentage of the consumed sucrose solution in the total fluid consumption.

[7] = test system: neurons in the amygdala and arcuate nucleus; assay: Neuron activity after nasal inhalation of GALR2 agonist; type: in vivo, mice; details: 8 μg nasal inhalation, 1-2 h; like intracerebroventricular injection
Procedure: 1-2 h after nasal inhalation, the results were recorded. The results of nasal inhalation were compared with those of intracerebroventricular injection.

[8] = 3 μg into the third ventricle, 24 h, compared to spexin-administered mice and control
[9] = concentrations of 0.5, 1, and 3

CC(C)C[C@H](NC(=O)[C@H](C)NC(=O)[C@H](C)NC(=O)[C@H](CC(N)=O)NC(=O)[C@@H]1CCCN1C(=O)[C@@H](NC(=O)[C@H](Cc1c[nH]c2ccccc12)NC(=O)[C@H](N)CC(N)=O)[C@@H](C)O)C(=O)N[C@@H](Cc1ccc(O)cc1)C(=O)N[C@@H](CC(C)C)C(=O)N[C@@H](Cc1ccccc1)C(=O)NCC(=O)N1CCC[C@H]1C(=O)N[C@@H](CCC(N)=O)C(N)=O [dN1-Qu] (H-[dN]WTPNAALYLFGPQ-NH2)
specificity for GALR2 (GALR2): specificity for GALR2 | change in body weight [1, 8]: weight loss was effectively induced | dietary intake [1, 8]: significantly decreased | c-fos expressing neurons in the arcuate nucleus [2]: increase in the number of c-fos expressing neurons | stability in serum (100% FBS) [3]: increased stability | c-fos expressing neurons in the amygdala (neurons in the amygdala): increase in the number of c-fos expressing neurons | neurons in other emotion-regulating brain regions (neurons in the amygdala): not activated | number of center crossing [4]: no difference | number of open arm entry [4]: increased | time in open arm [4]: increased | % distance in center ([5]; first 5-min period): increased | total distance ([5]; first 5-min period): no difference | % distance in center ([5]; second 5-min period): increased | total consumption of the fluids [6]: no difference | consumption of sucrose ([6]; 1% sucrose solution): considerably reduced | sucrose preference (consumed sucrose solution in total fluid consumption) ([6]; 1% sucrose, 0.4, 4, and 40 μg lateral ventricle, control ~70%): ≤ 60%

PEG-NWTdANAALYLFGPdQ-NH2 ({PEG}-NWT[dA]NAALYLFGP[dQ]-NH2; reading uncertain) [PEG-se]
specificity for GALR2 (GALR2): specificity for GALR2 | effect on dietary intake after GALR2 antagonist M871 ([1]; 3 μg following 10 μg of M871): disappeared | effect on weight loss after GALR2 antagonist M871 ([1]; 3 μg following 10 μg of M871): disappeared | dietary intake [1, 9]: dietary intakes and weight losses were observed | weight loss [1, 9]: dietary intakes and weight losses were observed | activity of neurons in the amygdala and arcuate nucleus [7]: increase the activity of neurons | stability in serum (100% FBS) [3]: increased stability
